# Results from the supplement of paper PMC12463676, “Small-molecule dissolution of stress granules by redox modulation benefits ALS models” (Nature Chemical Biology, 2025).
# Key:
# [1] = compound: O=[As]([O-])(O)O.[K+] [potassium arsenate]; assay: thermal stability z-score vs DMSO; higher = more thermally stabilized by treatment; details: HeLa; arsenate concentration 1 mM
# Procedure: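 Cellular thermal proteome profiling in HeLa cells treated with 1 mM arsenate for 1 h (DMSO pretreatment), heated to ten temperatures (37-66.3 °C). Soluble protein was quantified by TMT mass spectrometry relative to DMSO controls; the thermal stability score was transformed to a z-score; mean of n = 3 experiments.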
# [2] = compound: NC(=O)CCCCC1CCSS1 [lipoamide]; assay: as above; details: HeLa, lipoamide concentration 100 µM
# Procedure: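 Cellular thermal proteome profiling in HeLa cells. Cells were treated with 100 µM lipoamide for 1 h, with or without 1 mM arsenate for a further 1 h, then heated to ten temperatures (37-66.3 °C), and soluble protein was quantified by TMT mass spectrometry relative to 0.1% DMSO controls. The thermal stability score (sum of log2 fold changes minus the abundance score) was transformed to a z-score; mean of n = 3 experiments.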
# [3] = arsenate co-treatment: 1 mM arsenate 1 h
# 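Note: each temperature applied for 3 min, abundance score taken as mean log2 fold change at the two lowest temperatures, z-score obtained by mean subtraction and division by SD.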
# UniProt Q96RU3, sequence (Q96RU3 whole entry): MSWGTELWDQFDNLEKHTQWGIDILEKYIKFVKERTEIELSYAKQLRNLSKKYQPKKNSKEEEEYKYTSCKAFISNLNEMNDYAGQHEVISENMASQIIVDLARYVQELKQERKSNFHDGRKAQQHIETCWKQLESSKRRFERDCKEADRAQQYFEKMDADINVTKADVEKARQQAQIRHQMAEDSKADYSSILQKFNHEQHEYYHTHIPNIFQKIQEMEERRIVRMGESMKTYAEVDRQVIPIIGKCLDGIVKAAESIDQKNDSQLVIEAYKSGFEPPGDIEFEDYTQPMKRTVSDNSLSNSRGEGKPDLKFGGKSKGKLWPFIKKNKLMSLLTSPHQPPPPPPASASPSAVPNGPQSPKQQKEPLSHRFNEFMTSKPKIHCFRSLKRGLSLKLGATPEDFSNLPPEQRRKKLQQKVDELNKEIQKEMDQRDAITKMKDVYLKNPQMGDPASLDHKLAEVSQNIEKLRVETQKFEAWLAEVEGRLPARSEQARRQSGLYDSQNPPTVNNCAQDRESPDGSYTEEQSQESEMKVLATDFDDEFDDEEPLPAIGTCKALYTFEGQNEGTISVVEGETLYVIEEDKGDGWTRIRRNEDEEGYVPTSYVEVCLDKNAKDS
# UniProt Q12778, sequence (Q12778 whole entry): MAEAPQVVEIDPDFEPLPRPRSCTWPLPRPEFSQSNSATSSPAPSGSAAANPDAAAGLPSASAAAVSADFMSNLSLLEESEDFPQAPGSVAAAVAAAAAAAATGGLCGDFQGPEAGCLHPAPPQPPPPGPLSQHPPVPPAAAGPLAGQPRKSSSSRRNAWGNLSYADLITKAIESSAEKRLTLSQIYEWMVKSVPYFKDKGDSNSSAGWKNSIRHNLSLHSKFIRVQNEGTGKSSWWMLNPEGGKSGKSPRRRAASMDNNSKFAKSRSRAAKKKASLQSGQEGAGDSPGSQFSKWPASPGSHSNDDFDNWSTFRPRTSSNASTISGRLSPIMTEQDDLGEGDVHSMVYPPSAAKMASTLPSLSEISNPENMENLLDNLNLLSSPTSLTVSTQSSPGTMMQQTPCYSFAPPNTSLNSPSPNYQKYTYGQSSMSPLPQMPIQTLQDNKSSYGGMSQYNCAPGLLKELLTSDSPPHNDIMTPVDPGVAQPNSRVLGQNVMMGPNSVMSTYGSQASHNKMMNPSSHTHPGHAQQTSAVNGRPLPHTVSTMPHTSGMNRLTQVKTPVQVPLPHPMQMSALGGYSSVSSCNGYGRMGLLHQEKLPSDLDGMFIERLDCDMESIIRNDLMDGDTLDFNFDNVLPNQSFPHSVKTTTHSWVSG
# UniProt Q8IWF2, sequence (Q8IWF2 whole entry): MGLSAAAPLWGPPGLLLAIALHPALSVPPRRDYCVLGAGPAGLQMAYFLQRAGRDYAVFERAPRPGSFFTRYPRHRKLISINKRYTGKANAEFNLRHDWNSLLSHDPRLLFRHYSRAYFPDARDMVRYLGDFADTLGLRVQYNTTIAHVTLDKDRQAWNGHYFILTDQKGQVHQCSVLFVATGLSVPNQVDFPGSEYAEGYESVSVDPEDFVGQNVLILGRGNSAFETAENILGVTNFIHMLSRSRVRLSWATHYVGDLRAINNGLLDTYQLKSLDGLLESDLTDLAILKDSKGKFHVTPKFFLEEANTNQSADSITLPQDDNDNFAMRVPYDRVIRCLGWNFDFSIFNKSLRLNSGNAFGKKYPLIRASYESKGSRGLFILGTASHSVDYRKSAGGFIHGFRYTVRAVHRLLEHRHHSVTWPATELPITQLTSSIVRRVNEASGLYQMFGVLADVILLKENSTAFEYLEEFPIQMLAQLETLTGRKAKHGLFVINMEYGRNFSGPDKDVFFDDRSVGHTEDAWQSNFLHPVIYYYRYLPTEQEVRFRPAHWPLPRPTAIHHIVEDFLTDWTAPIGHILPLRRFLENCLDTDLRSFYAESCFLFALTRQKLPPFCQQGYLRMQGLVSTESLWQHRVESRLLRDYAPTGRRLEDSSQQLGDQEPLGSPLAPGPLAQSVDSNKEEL
# UniProt Q8N0W3, sequence (Q8N0W3 whole entry): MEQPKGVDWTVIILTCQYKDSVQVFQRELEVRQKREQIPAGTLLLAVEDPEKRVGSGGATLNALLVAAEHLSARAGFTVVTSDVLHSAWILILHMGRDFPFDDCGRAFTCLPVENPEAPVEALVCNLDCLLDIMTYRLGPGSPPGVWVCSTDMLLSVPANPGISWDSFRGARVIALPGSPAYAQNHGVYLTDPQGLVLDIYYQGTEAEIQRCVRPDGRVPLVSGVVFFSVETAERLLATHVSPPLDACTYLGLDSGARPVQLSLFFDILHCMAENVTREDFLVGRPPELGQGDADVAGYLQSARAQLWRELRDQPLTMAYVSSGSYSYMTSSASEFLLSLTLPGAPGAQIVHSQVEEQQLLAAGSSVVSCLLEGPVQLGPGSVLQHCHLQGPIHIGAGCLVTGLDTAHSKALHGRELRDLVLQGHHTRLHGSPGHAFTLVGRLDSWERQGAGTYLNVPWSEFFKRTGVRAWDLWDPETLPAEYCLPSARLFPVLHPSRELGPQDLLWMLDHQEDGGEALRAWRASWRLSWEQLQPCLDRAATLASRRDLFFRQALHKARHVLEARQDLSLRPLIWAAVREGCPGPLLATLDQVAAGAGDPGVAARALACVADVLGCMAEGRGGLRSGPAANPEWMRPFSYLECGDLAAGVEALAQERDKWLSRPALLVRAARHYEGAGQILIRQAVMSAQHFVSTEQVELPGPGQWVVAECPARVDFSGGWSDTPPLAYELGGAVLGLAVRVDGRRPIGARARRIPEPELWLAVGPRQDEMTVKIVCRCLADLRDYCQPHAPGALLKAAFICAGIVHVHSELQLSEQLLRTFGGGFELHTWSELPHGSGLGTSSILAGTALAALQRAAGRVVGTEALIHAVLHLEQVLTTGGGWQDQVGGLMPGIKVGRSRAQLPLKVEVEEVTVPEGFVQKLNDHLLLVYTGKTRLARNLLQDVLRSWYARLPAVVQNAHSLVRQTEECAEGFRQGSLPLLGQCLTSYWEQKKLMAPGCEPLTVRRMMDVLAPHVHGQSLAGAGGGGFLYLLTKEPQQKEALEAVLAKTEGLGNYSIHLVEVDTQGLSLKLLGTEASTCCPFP
# UniProt Q96PY5, sequence (Q96PY5 whole entry): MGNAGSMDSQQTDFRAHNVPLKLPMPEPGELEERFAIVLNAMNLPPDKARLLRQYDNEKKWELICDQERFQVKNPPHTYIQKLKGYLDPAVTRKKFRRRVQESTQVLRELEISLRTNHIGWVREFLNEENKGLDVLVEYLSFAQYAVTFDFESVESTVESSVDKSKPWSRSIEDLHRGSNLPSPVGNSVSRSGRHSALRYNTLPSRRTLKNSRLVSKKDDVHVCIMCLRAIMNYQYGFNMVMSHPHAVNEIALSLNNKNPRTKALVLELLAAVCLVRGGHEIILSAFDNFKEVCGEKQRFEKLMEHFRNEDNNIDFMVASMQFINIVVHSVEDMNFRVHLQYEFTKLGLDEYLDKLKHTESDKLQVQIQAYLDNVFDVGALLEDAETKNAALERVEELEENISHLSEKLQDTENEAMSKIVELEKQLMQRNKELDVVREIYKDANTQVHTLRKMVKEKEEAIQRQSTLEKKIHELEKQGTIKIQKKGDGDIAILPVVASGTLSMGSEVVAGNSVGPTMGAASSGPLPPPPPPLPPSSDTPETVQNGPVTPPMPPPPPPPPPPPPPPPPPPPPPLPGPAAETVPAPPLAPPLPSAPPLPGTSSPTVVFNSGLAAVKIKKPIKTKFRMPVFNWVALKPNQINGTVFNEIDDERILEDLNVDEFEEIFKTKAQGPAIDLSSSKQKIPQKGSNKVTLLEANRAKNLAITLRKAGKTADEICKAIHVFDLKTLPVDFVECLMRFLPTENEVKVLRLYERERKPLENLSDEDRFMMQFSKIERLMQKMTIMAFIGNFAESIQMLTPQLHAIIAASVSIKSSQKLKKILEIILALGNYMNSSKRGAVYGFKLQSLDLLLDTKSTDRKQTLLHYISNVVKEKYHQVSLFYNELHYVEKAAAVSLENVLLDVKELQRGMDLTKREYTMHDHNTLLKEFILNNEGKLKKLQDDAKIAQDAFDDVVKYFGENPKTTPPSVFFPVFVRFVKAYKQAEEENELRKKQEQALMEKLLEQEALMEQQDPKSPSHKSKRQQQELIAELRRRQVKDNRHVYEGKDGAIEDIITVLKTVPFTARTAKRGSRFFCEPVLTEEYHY
# UniProt Q9C0B1, sequence (Q9C0B1 whole entry, looked up): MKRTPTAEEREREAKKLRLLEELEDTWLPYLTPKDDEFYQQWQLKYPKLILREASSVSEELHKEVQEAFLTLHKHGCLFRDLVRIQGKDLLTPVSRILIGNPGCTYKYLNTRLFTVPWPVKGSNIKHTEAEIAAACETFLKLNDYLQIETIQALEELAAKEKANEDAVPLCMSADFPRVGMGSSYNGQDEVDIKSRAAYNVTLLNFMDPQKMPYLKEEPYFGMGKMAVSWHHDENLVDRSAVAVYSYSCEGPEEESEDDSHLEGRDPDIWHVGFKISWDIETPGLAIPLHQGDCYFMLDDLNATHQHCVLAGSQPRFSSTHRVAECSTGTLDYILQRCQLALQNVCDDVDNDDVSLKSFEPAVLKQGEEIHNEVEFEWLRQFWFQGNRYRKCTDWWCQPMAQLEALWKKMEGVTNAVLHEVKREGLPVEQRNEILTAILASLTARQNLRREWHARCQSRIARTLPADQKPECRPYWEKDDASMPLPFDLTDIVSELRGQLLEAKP
# UniProt P15407, sequence (P15407 whole entry): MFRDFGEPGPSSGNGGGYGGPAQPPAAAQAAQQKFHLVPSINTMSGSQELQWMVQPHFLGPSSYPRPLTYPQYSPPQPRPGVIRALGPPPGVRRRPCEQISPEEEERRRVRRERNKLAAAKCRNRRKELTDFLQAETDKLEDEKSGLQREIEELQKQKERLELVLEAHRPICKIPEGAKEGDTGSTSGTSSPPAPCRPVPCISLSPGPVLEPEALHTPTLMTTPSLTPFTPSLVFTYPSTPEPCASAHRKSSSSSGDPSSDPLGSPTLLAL
# UniProt Q96CP2, sequence (Q96CP2 whole entry): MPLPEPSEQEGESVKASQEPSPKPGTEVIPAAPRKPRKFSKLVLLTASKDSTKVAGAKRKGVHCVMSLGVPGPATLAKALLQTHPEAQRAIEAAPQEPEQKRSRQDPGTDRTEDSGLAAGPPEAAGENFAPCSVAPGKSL
Target,thermal stability z-score [1],"thermal stability z-score [2, 3]",thermal stability z-score ([2]; arsenate co-treatment: none)
FKBP8 (UniProt Q14318),1.05,-1.33,-0.861
FKBP9 (UniProt O95302),0.508,-3.58,-2.22
FKBP10 (UniProt Q96AY3),0.321,-3.58,-2.95
FKBP14 (UniProt Q9NWM8),-0.591,-3.79,-2.85
FKBP15 (UniProt Q5T1M5),0.523,-0.422,-0.17
FKBPL (UniProt Q9UIM3),-0.0646,0.222,0.087
FLAD1 (UniProt Q8NFF5),-1.16,0.0301,0.05
FLII (UniProt Q13045),0.68,-0.35,0.0176
FLJ13984|METTL8,0.187,-0.0305,-0.13
FLNA (UniProt P21333),-0.4,0.22,0.544
FLNB (UniProt O75369),-0.574,0.683,0.798
FLNC (UniProt Q14315),0.567,0.266,0.657
FLOT1 (UniProt O75955),-0.283,1.38,0.653
FLOT2 (UniProt Q14254),-1.32,0.746,0.534
FLVCR1 (UniProt Q9Y5Y0),-0.43,-0.393,-0.367
FLYWCH2 (UniProt Q96CP2),0.0187,0.101,0.222
FMNL1 (UniProt O95466),-0.153,-0.412,-0.507
FMNL2 (UniProt Q96PY5),-0.048,0.0679,-0.0271
FMR1 (UniProt Q06787),0.0999,0.0851,0.195
FN3KRP (UniProt Q9HA64),0.155,-0.401,0.365
FNBP1 (UniProt Q96RU3),0.336,0.146,0.0859
FNBP1L (UniProt Q5T0N5),-0.284,-0.051,0.0394
FNBP4 (UniProt Q8N3X1),-0.51,0.826,1.2
FNDC3A (UniProt Q9Y2H6),0.846,-0.542,0.324
FNDC3B (UniProt Q53EP0),3.13,-0.593,0.623
FNIP1 (UniProt Q8TF40),0.000327,0.272,0.0643
FNTA (UniProt P49354),0.355,-0.0233,-0.0253
FOCAD (UniProt Q5VW36),-0.279,0.151,0.411

Target,thermal stability z-score [1],"thermal stability z-score [2, 3]",thermal stability z-score ([2]; arsenate co-treatment: none)
FOLR1 (UniProt P15328),0.366,0.588,0.376
FOSL1 (UniProt P15407),-0.444,0.361,-0.0186
FOSL2 (UniProt P15408),-2.25,1.86,0.702
FOXK1 (UniProt P85037),1.86,0.345,-0.0499
FOXK2 (UniProt Q01167),0.133,0.0506,-0.306
FOXO1 (UniProt Q12778),0.182,-0.211,-0.123
FOXO3 (UniProt O43524),0.19,-0.0135,-0.184
FOXP4 (UniProt Q8IVH2),0.363,-0.605,-0.281
FOXRED1 (UniProt Q96CU9),0.0548,-0.111,-0.24
FOXRED2 (UniProt Q8IWF2),0.897,-1.43,-1.2
FPGS (UniProt Q05932),0.864,0.0221,-0.181
FPGT (UniProt O14772),0.0182,-0.111,0.182
FRA10AC1 (UniProt Q70Z53),0.108,0.081,0.0654
FRG1 (UniProt Q14331),0.312,0.146,0.243
FRMD8 (UniProt Q9BZ67),-0.172,0.263,0.131
FRRS1 (UniProt Q6ZNA5),0.586,-0.316,-0.157
FRYL (UniProt O94915),0.161,-0.0982,0.156
FSCN1 (UniProt Q16658),-1.09,0.0281,-0.236
FSTL3 (UniProt O95633),0.0815,-3.19,-2.34
FTH1 (UniProt P02794),-2.18,0.266,0.204
FTO (UniProt Q9C0B1),1.38,-0.0697,-0.447
FTSJ1 (UniProt Q9UET6),-0.793,-0.787,-0.171
FTSJ3 (UniProt Q8IY81),-0.519,-0.198,0.792
FUBP1 (UniProt Q96AE4),0.0234,0.139,0.157
FUBP3 (UniProt Q96I24),0.385,0.25,0.329
FUCA2 (UniProt Q9BTY2),1.09,-0.251,-0.214
FUK (UniProt Q8N0W3),0.0734,0.775,0.461
